Reference: patent US20240199625A1, “BICYCLIC HETEROCYCLIC FGFR4 INHIBITOR, PHARMACEUTICAL COMPOSITION AND PREPARATION COMPRISING SAME, AND APPLICATION THEREOF” (Hangzhou Apeloa Medicine Research Institute Co., Ltd., priority 2021, published 2024)
Read-outs that look alike come from different tables or passages of the source.

Tests used:
[1] = molecular target: tyrosine kinase FGFR4 (Homo sapiens (Human), UniProt P22455); assay: In vitro kinase test (HTRF), FGFR4; assay type: biochemical; details: for IC50: HTRF, 60 min preincubation, 40 min reaction at 37° C.; for FGFR1 IC50 / FGFR4 IC50 ratio (FGFR4 selectivity): ratio of the FGFR1 and FGFR4 IC50 values
Sequence of tyrosine kinase FGFR4 (P22455 22-802): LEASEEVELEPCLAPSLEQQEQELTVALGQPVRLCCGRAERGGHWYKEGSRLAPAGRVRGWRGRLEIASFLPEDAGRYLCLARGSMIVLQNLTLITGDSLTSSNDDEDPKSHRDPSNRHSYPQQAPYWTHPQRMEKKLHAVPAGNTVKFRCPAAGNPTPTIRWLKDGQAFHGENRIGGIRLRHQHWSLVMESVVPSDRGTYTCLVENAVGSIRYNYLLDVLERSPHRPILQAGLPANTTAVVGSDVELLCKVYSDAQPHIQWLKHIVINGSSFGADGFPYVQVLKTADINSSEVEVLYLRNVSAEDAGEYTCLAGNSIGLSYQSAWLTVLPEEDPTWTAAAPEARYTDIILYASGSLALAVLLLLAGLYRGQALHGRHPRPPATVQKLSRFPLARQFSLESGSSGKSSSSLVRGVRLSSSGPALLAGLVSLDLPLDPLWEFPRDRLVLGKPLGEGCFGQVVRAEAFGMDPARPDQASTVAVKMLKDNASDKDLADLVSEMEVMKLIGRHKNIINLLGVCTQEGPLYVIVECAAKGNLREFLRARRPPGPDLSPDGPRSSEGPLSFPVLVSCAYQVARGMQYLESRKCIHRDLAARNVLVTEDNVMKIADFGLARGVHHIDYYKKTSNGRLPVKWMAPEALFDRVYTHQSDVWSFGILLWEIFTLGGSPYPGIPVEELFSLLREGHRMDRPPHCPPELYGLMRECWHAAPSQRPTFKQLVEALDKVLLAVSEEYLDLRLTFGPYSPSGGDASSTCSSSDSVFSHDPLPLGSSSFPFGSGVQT
Protocol: (§1) The effect of compounds of the present invention on tyrosine kinase FGFR1 and FGFR4 activity is evaluated by an in vitro kinase test. The method used in the test was homogeneous time-resolved fluorescence (HTRF).
(§2) Compound preparation: Add 45 μL of DMSO to 5 μL of stock solution at a concentration of 10 mM to prepare the solution LY2874455 at 1000 µM; then add 12 μL of the compound at 1000 μM to 88 µL of DMSO to prepare the solution LY2874455 at 120 μM as the starting concentration; add 48 μL of DMSO to 2 μL of stock solution at a concentration of 10 mM to prepare the solution BLU554 at 400 μM as the starting concentration; add 15 μL of DMSO to 10 μL of sample compound stock solution at a concentration of 10 mM to prepare a sample compound solution at 4 mM as the starting concentration; transfer the compound solution to the target plate with the dispenser Echo.
(§3) Kinase reaction: Add 5 μL of kinase solution to each well, incubate the compound and kinase at room temperature for 60 min, add 5 μL of substrate and ATP mixture to start reacting at 37° C. for a certain period of time (30 min for FGFR1 kinase test, and 40 min for FGFR4 kinase test), and then add 10 μL of X1665 and antibody detection reagent mixture to stop; after 60 min of incubation at room temperature, read the TR-FRET signal with microplate reader SPARK 10M at the transmit wavelength of 665 nm/612 nM. Test enzyme activity at 10 concentrations for each compound, and calculate the IC50 value of the compound with the data with the analysis software, as shown in Table 1.

[2] = tested on: human hepatoma cells Hep3B; assay: Cell proliferation test (CELL TITER-GLO); assay type: cell-based; details: 3 days incubation, CTG, read-out: IC50 Value of Compound for Hep3B Cells
Protocol: The effect of the compounds of the present invention on the proliferation of human hepatoma cells Hep3B is evaluated by an in vitro cell test. The method used in the test was CELL TITER-GLO (CTG).
Cell plating: Take Hep3B cells in the logarithmic growth phase, digest, centrifuge at 1,000 rpm for 5 min at room temperature and collect, resuspend with EMEM medium of 10% FBS and count, and inoculate into a 384-well microplate (#3765) at a density of 800 cells/well, 20 μL in each.
Compound preparation: Dissolve the compound in DMSO to prepare a stock solution at a concentration of 10 mM, dilute the sample compound stock solution to 2 mM with DMSO (6 μL of the stock solution plus 24 μL of DMSO) as the starting concentration, and dilute the control compound stock solution to 200 μM with DMSO (2 μL of the stock solution plus 98 μL of DMSO) as the starting concentration; dilute the compound 9 times with DMSO in gradient by 3 folds, and then dilute the compound to 40 times the final concentration dose with cell culture medium (2 μL of the compound plus 78 μL of […]).
Cell dosing: Add 5 μL (5×) of the compound to the corresponding wells, make sure the final concentrations of sample compounds are respectively 10000 nM, 3333 nM, 1111 nM, 370.37 nM, 123.46 nM, 41.15 nM, 13.72 nM, 4.57 nM, 1.52 nM, 0.50 nM, take 0.5% DMSO as the negative control, and incubate the microplate at 37° C. in 5% C02 for 3 days.
CTG detection: After 3 days of incubation, add 5 μL of Cell Titer-Glo® reagent per well, incubate on a shaker at 300 rpm for 60 min protected from light at room temperature, read the luminescence signals with microplate reader Spark 10M, and calculate the semi-inhibitory concentration of the compound on cell proliferation, that is, the IC50 value, with the analysis software, as shown in Table 2.

[3] = molecular target: tyrosine kinase FGFR1 (Homo sapiens (Human), UniProt P11362); assay: In vitro kinase test (HTRF), FGFR1; assay type: biochemical; details: 60 min preincubation, 30 min reaction at 37° C.
Sequence of tyrosine kinase FGFR1 (P11362 22-822): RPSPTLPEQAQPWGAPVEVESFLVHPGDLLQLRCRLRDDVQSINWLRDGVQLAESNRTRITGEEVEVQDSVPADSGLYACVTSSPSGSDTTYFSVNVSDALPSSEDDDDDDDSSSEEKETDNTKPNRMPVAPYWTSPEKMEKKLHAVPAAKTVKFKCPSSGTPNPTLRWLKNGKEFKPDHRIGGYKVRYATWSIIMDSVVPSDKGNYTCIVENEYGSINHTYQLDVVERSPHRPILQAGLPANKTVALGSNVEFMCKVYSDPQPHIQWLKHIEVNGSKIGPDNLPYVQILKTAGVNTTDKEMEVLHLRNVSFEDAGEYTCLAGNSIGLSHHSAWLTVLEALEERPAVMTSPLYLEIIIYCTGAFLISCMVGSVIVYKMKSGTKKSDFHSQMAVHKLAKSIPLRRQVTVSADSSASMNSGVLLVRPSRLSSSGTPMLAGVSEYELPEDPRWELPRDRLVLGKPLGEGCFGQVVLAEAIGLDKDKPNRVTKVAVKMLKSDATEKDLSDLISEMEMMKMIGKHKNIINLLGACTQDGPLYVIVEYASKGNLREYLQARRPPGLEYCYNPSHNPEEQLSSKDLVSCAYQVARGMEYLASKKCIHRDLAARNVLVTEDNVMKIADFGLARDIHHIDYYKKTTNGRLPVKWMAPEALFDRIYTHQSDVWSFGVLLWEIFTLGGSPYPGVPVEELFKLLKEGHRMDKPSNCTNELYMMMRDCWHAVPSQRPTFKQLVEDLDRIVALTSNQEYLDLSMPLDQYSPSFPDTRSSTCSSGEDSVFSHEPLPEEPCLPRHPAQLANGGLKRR
Protocol: as §1, §2, §3

IC50 [1] [nM]	FGFR1 IC50 / FGFR4 IC50 ratio (FGFR4 selectivity) [1]	IC50 [3] [nM]	IC50 ([2]; Homo sapiens, Hep3B, 72 h) [nM]	SMILES	IC50 [2] [nM]
2.6	3817	> 9930	38.1	C=CC(=O)Nc1cc(N2CCOCC2)c(F)cc1Nc1cc2c(cn1)CN(c1c(F)c(OC)nc(OC)c1F)C(=O)C21CC1 [Compound 14, N-(2-((2′-(3,5-difluoro-2,6-dimethoxypyridine-4-yl)-3′-oxo-2′,3′-dihydro-1′H-spiro[cyclopropane-1,4′-[2,7]naphthyridine]-6′-yl)-amino)-4-fluoro-5-morpholinophenyl)acrylamide]	–
2.7	3172	8570	56.5	C=CC(=O)Nc1cccc(C)c1Nc1cc2c(cn1)CN(c1c(F)c(OC)nc(OC)c1F)C(=O)C21CC1 [Compound 8, N-(2-((2′-(3,5-difluoro-2,6-dimethoxypyridine-4-yl)-3′-oxo-2′,3′-dihydro-1′H-spiro[cyclopropane-1,4′-[2,7]naphthyridine]-6′-yl)amino)-3-methylphenyl)acrylamide]	–
0.67	1468	984	14	C=CC(=O)Nc1cc(N2CCOCC2)ccc1Nc1cc2c(cn1)CN(c1c(F)c(OC)nc(OC)c1F)C(=O)C21CC1 [Compound 10, N-(2-((2′-(3,5-difluoro-2,6-dimethoxypyridine-4-yl)-3′-oxo-2′,3′-dihydro-1′H-spiro[cyclopropane-1,4′-[2,7]naphthyridine]-6′-yl)-amino)-5-morpholinophenyl) acrylamide]	–
5.98	–	624	38.4	C=CC(=O)N[C@H]1CCOC[C@H]1Nc1ncc2cc(-c3c(Cl)c(OC)cc(OC)c3Cl)ccc2n1 [BLU554, reference compound]	–
0.3	20	6	–	C=CC(=O)Nc1cc(N2CCC(N3CCOCC3)CC2)ccc1Nc1cc2c(cn1)CN(c1c(F)c(OC)nc(OC)c1F)C(=O)C21CC1 [Compound 5, N-(2-((2′-(3,5-difluoro-2,6-dimethoxypyridine-4-yl)-3′-oxo-2′,3′-dihydro-1′H-spiro[cyclopropane-1,4′-[2,7]naphthyridine]-6′-yl)-amino)-5-(4-morpholinopiperidin-1-yl)phenyl)acrylamide]	–

SMILES	IC50 [1] [nM]	FGFR1 IC50 / FGFR4 IC50 ratio (FGFR4 selectivity) [1]	IC50 [3] [nM]	IC50 ([2]; Homo sapiens, Hep3B, 72 h) [nM]	IC50 [2] [nM]
C=CC(=O)Nc1cc(N2CCOCC2C)ccc1Nc1cc2c(cn1)CN(c1c(F)c(OC)nc(OC)c1F)C(=O)C21CC1 (centres unmarked) [Compound 15, N-(2-((2′-(3,5-difluoro-2,6-dimethoxypyridine-4-yl)-3′-oxo-2′,3′-dihydro-1′H-spiro[cyclopropane-1,4′-[2,7]naphthyridine]-6′-yl)-amino)-5-(3-methomorpholinyl)phenyl)acrylamide]	0.63	3617	2280	–	15.3
C=CC(=O)NCc1cc2c(cn1)CN(c1c(F)c(OC)nc(OC)c1F)C(=O)C21CC1 [Compound 1, N-((2′-(3,5-difluoro-2,6-dimethoxypyridine-4-yl)-3′-oxo-2′,3′-dihydro-1′H-spiro[cyclopropane-1,4′-[2,7]naphthine]-6′-yl)methyl) acrylamide]	8.57	426	3660	–	52.6
C=CC(=O)Nc1ccccc1Nc1cc2c(cn1)CN(c1c(F)c(OC)nc(OC)c1F)C(=O)C21CC1 [Compound 7, N-(2-((2′-(3,5-difluoro-2,6-dimethoxypyridine-4-yl)-3′-oxo-2′,3′-dihydro-1′H-spiro[cyclopropane-1,4′-[2,7]naphthol]-6′-yl)amino)phenyl)acrylamide]	5.42	782	4240	–	–
